In patent US6652633B2, “Fire retardant” (Arch Wood Protection, Inc., priority 2001, dated 2003):

Experiment: potentiometric titration against 0.1 N NaOH with mannitol complexation (equivalence points)
Type: physicochemical
Settings: aqueous GUP/boric acid solution complexed with mannitol; potentiometric titration of GUP/boric acid solutions, samples complexed with mannitol; read-out: pKa (equivalence point)
Protocol: The mixture was heated to approximately 48° C. to dissolve all of the solids, and a sample for analysis taken. The temperature of the solution was then raised and maintained between 70° C. and 90° C. for 3.5 hours. Samples of the solution were analyzed by potentiometric titration every hour, and at the end of the 3.5 hour reaction period.
The samples were titrated against approximately 0.1 N NaOH (standardized against a potassium hydrogen phthalate standard from NIST). Because the pKa of GUP is very close to that for boric acid, the samples were each complexed with 10 g of mannitol to form a boric acid ester having a lower pKa that is more easily distinguishable from that of GUP. The results are given in Table 1,below, and plotted on FIG. 1.
Approximately 0.1000 g of solid product was combined with about 10 g mannitol and titrated against 0.1 N NaOH. The mannitol was added to react with the boric acid to for a borate ester, which has a much lower equivalence point than GUP. […] The loss in yield was attributable to the short reaction time allowed in this example. A kinetic analysis was subsequently undertaken, and it was determined that an increase in GUP yield could be obtained by increasing the reaction time, as indicated in Table 4 below.

pKa: 7.25
Compound: N=C(N)NC(N)=O [GUP, guanylurea phosphate]
